Measured values published in patent publication US20250186408A1, “TREATMENT OF PHARMACORESISTANT EPILEPSY” (Katholieke Universiteit Leuven, priority 2021, published 2025).
Where two headings read alike, the source gives them in different places.

How the values were obtained:
CHRM2 = target: T1, CHRM2 (Homo sapiens, UniProt P08172); experiment: cAMP CHRM2 Agonist; conditions: for Emax: read-out: Max response
T1 sequence (P08172 1-466): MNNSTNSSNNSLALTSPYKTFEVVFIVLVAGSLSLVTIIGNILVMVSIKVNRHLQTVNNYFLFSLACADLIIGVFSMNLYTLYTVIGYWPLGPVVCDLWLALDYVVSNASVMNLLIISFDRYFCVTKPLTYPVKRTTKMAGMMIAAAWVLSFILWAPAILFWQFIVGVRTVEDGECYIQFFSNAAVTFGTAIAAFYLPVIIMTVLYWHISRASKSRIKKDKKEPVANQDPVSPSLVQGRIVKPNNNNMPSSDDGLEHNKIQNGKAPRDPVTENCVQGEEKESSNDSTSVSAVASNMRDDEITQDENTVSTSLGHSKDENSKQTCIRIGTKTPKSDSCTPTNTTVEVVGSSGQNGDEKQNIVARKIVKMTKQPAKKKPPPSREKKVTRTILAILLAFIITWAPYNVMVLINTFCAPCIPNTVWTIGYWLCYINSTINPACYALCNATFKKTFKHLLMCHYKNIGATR
Method: (§2) In vitro pharmacological profiling of compounds was done against 78 functional assays for 47 common off-targets (30) by Eurofins DiscoverX Corporation (Fremont, CA, USA) using their SAFETYscan E/IC50 ELECT service (Cat Ref 87-1003DR, Safety47 Panel Dose Response). […] Compounds were tested in a range of 10 concentrations, following a 3-fold serial dilution, starting from 10 μM. The assays were performed utilizing the PathHunter enzyme fragment complementation (EFC) technology, FLIPR®-based cellular screening assays, and KINOMEscan kinase binding assays.
cAMP Hunter cell lines were expanded from freezer stocks. Prior to testing, cells were seeded in a total volume of 20 μL into white walled 384-well microplates and incubated at 37° C. cAMP modulation was determined using the DiscoverX HitHunter cAMP XS+ assay. For Gs agonist determination, cells were incubated with sample to induce response. For Gi agonist determination, cells were incubated with sample in the presence of EC80 forskolin to induce response. For both conditions, media was aspirated from cells and replaced with 15 μL 2:1 HBSS/10 mM HEPES:cAMP XS+ Ab reagent. Intermediate dilution of sample stocks was performed to generate 4× sample in assay buffer (containing 4×EC80 forskolin in the case of antagonist determination). 5 μL of 4× sample was added to cells and incubated at 37° C. or room temperature (RT) for 30 or 60 min. Final assay vehicle concentration was 1%. For antagonist determination, cells were pre-incubated with sample followed by agonist challenge at the EC80 concentration. Media was aspirated from cells and replaced with 10 μL 1:1 HBSS/HEPES:cAMP XS+ Ab reagent. 5 μL of 4× compound was added to the cells and incubated at 37° C. or RT for 30 min. 5 μL of 4×EC80 agonist was added to the cells and incubated at 37° C. or RT for 30 or 60 min. For Gi coupled GPCRs, EC80 forskolin was included. […] Microplates were read following signal generation with a PerkinElmer Envision™ instrument for chemiluminescent signal detection. Compound activity was analyzed using CBIS data analysis suite (ChemInnovation, CA).

ADRB2 = ADRB2 (Homo sapiens, UniProt P07550); experiment: cAMP ADRB2 Agonist; assay type: cell-based; conditions: for Emax: read-out: Max response
Method: cAMP Hunter cell lines were expanded from freezer stocks. […] For Gi agonist determination, cells were incubated with sample in the presence of EC80 forskolin to induce response. For both conditions, media was aspirated from cells and replaced with 15 μL 2:1 HBSS/10 mM HEPES:cAMP XS+ Ab reagent. […] 5 μL of 4× sample was added to cells and incubated at 37° C. or room temperature (RT) for 30 or 60 min. Final assay vehicle concentration was 1%. […] Media was aspirated from cells and replaced with 10 μL 1:1 HBSS/HEPES:cAMP XS+ Ab reagent. […] For Gi coupled GPCRs, EC80 forskolin was included. […] Compound activity was analyzed using CBIS data analysis suite (ChemInnovation, CA).

HTR2B = HTR2B (Homo sapiens, UniProt P41595); experiment: Calcium Flux HTR2B Antagonist; conditions: for Emax: read-out: Max response
Method: as §2
Prior to testing, cells (10,000 cells/well) were expanded from freezer stocks and seeded into a total volume of 50 μL into black walled, clear-bottom, Poly-D-lysine coated 384-well microplates and incubated at 37° C. […] Assays were performed in 1× dye loading buffer consisting of 1× Dye (DiscoverX, Calcium No Wash^PLUS kit, Catalog No. 90-0091), 1× Additive A and 2.5 mM Probenecid in HBSS/20 mM HEPES. Probenecid was prepared fresh. Prior to testing, media was aspirated from cells and replaced with 25 μL dye loading buffer. Cells were incubated for 45 min at 37° C. and then 20 min at RT. For agonist determination, 25 μL of 2× compound in HBSS/20 mM HEPES was added using a FLIPR Tetra (MDS). For antagonist determination, cells were pre-incubated with sample followed by agonist challenge at the EC80 concentration. 25 μL of 2× sample was added and cells were incubated for 30 min at RT in the dark to equilibrate plate temperature. After incubation, antagonist determination was initiated by addition of 25 μL of 1× compound with 3×EC80 agonist using FLIPR. For both agonist and antagonist formats, activity was measure on a FLIPR Tetra (MDS). Calcium mobilization was monitored for 2 min with a 5 sec baseline read.
FLIPR read—Area under the curve, was calculated for the entire 2 min read. Compound activity was analysed using CBIS data analysis suite (ChemInnovation, CA).

MAOA = target: T2, MAOA (Homo sapiens, UniProt P21397); experiment: Enzymatic MAOA Inhibitor; assay type: biochemical; conditions: for Emax: read-out: Max response
T2 construct: purchased Sigma
T2 sequence (P21397 1-527): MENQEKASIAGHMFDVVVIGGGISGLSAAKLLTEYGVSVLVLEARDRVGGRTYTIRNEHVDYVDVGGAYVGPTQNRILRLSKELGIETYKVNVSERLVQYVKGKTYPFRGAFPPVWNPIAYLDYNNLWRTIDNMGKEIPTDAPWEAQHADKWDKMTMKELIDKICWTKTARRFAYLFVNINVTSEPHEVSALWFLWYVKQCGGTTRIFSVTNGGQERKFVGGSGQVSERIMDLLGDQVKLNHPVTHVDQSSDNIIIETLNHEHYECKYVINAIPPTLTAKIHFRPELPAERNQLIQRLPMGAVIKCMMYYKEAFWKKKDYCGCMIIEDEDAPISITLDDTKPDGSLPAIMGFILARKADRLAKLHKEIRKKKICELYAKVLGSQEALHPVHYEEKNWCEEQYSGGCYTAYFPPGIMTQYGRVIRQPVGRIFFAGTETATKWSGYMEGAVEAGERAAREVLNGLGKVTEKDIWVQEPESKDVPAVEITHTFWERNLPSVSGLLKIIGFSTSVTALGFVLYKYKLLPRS
Method: (§1) Enzyme preparations were sourced from various vendors-AChE (R&D Systems), COX1 and COX2 (BPS Bioscience), MAOA (Sigma), PDE3A and PDE4D2 (Signal Chem). AChE: enzyme and test compound were pre-incubated for 15 min at RT before substrate addition. Acetylthiocholine and DTNB were added and incubated at RT for 30 min. Signal was detected by measuring absorbance at 405 nm. COX1 and COX2: enzyme stocks were diluted in assay buffer (40 mM Tris-HCl, 1×PBS, 0.5 mM Phenol, 0.01% Tween 20 and 10 nM Hematin) and allowed to equilibrate with compounds at RT for 30 min (binding incubation). Arachidonic acid (1.7 μM) and Ampliflu Red (2.5 μM) were prepared and dispended into a reaction plate. Plates were read immediately on a fluorimeter with the emission detection at 590 nm and excitation wavelength 544 nm. MAOA: enzyme and test compound were pre-incubated for 15 min at 37° C. before substrate addition. The reaction was initiated by addition of kynuramine and incubated at 37° C. for 30 min. The reaction was terminated by addition of NaOH. The amount of 4-hydroquinoline formed was determined through spectrofluorometric readout with the emission detection at 380 nm and excitation wavelength 310 nm. PDE3A and PDE4D2: enzyme and test compound were pre-incubated for 15 min at RT before substrate addition. cAMP substrate (at a concentration equal to EC80) was added and incubated at RT for 30 min. Enzyme reaction was terminated by addition of 9 mM IBMX. Signal was detected using the HitHunter® cAMP detection kit. Microplates were transferred to a PerkinElmer Envision™ instrument and read out as described for each assay. […] For enzyme activity assays, percentage inhibition was calculated using the following equation: […]

COX2 = target: T3, COX2 (Homo sapiens, UniProt P35354); experiment: Enzymatic COX2 Inhibitor; assay type: biochemical; conditions: for IC50: read-out: RC50, result type IC50; for Emax: read-out: Max response
T3 construct: purchased BPS Bioscience
T3 sequence (P35354 18-604): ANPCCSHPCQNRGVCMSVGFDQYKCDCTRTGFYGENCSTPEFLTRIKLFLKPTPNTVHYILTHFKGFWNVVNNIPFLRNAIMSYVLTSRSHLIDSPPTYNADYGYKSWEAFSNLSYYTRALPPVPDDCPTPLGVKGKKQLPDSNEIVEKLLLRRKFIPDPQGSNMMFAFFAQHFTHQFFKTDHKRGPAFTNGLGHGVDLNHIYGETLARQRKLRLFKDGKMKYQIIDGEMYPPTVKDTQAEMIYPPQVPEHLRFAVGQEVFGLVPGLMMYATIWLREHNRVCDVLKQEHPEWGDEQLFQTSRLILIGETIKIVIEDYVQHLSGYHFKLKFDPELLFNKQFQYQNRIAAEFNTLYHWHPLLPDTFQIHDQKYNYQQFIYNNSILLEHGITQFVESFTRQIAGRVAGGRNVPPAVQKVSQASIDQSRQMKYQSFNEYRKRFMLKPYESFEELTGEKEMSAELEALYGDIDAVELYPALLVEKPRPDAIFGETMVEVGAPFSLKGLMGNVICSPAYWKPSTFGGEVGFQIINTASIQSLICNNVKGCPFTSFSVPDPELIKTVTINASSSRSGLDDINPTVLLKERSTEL
Method: as §1

Chain of HTR2B (P41595 whole entry): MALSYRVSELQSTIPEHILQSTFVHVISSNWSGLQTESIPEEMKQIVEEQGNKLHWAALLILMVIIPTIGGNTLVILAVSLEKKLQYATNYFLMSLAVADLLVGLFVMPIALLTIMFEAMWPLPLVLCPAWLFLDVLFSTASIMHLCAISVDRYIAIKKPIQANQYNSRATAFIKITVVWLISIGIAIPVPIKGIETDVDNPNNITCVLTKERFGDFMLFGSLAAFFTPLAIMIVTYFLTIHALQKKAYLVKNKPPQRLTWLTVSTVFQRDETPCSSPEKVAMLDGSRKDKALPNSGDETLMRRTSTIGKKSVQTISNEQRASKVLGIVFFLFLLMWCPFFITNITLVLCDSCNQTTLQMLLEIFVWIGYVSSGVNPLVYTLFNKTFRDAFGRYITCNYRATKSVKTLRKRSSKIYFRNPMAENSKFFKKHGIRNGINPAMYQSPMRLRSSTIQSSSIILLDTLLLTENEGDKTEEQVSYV
Chain of ADRB2 (P07550 whole entry): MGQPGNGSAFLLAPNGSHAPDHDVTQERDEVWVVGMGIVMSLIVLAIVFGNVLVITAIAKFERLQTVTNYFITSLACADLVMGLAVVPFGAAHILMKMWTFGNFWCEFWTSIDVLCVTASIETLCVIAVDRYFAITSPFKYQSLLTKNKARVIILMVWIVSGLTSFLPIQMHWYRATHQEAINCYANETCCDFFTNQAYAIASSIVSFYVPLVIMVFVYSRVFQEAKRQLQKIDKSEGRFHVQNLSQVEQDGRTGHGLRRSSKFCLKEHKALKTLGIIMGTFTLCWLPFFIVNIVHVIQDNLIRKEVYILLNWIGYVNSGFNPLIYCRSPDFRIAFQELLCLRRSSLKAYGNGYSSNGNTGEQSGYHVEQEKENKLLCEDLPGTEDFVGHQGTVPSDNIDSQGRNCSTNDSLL

For CC(C)(C)c1ccc(C#CC(O)c2ccccc2)cc1 (racemic) [Compound 3.3, rac-3-(4-(tert-butyl)phenyl)-1-phenylprop-2-yn-1-ol], the EC50 (CHRM2) was greater than 10 µM, the Emax (CHRM2) was 0% and the EC50 (ADRB2) was greater than 10 µM. The Emax (ADRB2) was 1.9%, the IC50 (HTR2B) was greater than 10 µM and the Emax (HTR2B) was 0%. For the same molecule, the IC50 (MAOA) was greater than 10 µM, the Emax (MAOA) was 4.4% and the IC50 (COX2; Enzymatic COX2 Inhibitor) was greater than 10 µM. The Emax (COX2) was 0%.
Work on Clc1cccc(C#Cc2n[nH]c3ncccc23)c1 [Compound 10.1, 3-((3-chlorophenyl)ethynyl)-1H-pyrazolo[3,4-b]pyridine] yielded an EC50 (CHRM2) greater than 10 µM, an Emax (CHRM2) of 32.5% and an Emax (ADRB2; cAMP ADRB2 Agonist) of 0.3%. The EC50 (ADRB2; cAMP ADRB2 Agonist, read-out: RC50, result type EC50) was greater than 10 µM, the IC50 (HTR2B) was greater than 10 µM and the Emax (HTR2B) was 8.8%. The Emax (MAOA; Enzymatic MAOA Inhibitor) was 12.4%, the IC50 (MAOA; Enzymatic MAOA Inhibitor, read-out: RC50, result type IC50) was greater than 10 µM and the Emax (COX2; Enzymatic COX2 Inhibitor) was 0%. For the same molecule, the IC50 (COX2; Enzymatic COX2 Inhibitor) was greater than 10 µM.
